Assay results: patent US5618726A, “Biodegradable azo dyes” (priority 1994, dated 1997)
Each block holds one compound with its values, some of them ahead of it.

Assays:
[1] = test system: Phanerochaete chrysosporium; assay: Substrate removal / decolorization by P. chrysosporium culture; type: cell-based; details: for Percent substrate removed, P. chrysosporium: p. chrysosporium culture, 168 h; for % Decolorization, P. chrysosporium: 14 days
Protocol: Environ. Microbiol., 1981, 42:290-296), with the addition of 75 mg adenine (6-aminopurine) and 27 mg L-phenylalanine-per-liter. This addition accelerated the growth of the fungus without inhibiting ligninase activity. […] […] Cultures were incubated at 37° C. for 7 to 15 days with shaking (250 rpm). Solid agar media were also employed.

ligninase = assay: Oxidation of dyes by P. chrysosporium ligninase (crude preparation); type: biochemical, Phanerochaete chrysosporium; details: for Oxidation / decolorization by ligninase: pH3, 0.2 mM hydrogen peroxide, 15-minute incubation
How it was run: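 Crude P. chrysosporium ligninase oxidation of dyes, assayed by a previously reported method; conditions as for acid yellow 9, readings every 30 s for up to 15 minutes.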

Mn(II)-peroxidase [2] = assay: Oxidation of dyes by P. chrysosporium Mn(II)-peroxidase; type: biochemical, Phanerochaete chrysosporium; details: for Oxidation by manganese peroxidase: 15-minute incubation period
[3] = test system: Streptomyces chromofuscus; assay: Mineralization of 14C-labeled dyes by shaken cultures; type: cell-based; details: for Percentage of radioactivity recovered in CO2, Streptomyces chromofuscus / Percentage of radioactivity recovered in biomass (cells), Streptomyces chromofuscus / Percentage of radioactivity removed from the medium, Streptomyces chromofuscus: 21 days' growth, 50 mg/liter
Protocol: (§1) Agitated cultures containing 100,000 to 150,000 dpm of azo dye at a concentration of 200 mg/liter for P. chrysosporium and 50 mg/liter for S. chromofuscus were incubated at 37° C. for 20 days with shaking at 200 rpm. For each mineralization experiment six replicates-per-culture were run for P. chrysosporium and three replicates-per-culture for S. chromofuscus. Each culture flask contained a CO2 trap consisting of a small glass cup connected to the bottom of the rubber stopper. The cup contained 1 ml of 1N NaOH. Samples were taken every 2 days, and after each sampling cultures were flushed with 100% oxygen for 30 s. At the sampling time, the stopper was removed and the NaOH containing trapped CO2 was transferred to a 20-ml scintillation vial, and the cup was then rinsed twice with 1 ml of water. Two ml of rinse water were also transferred to the vial. Finally, 10 ml of Ecolite scintillation cocktail (ICN Biochemicals Inc., Irvine, Calif.) were added to each vial. Vials, after mixing, were stored in the dark for 24 h. The cpm of trapped radioactivity was then determined in a Packard Tri-Carb liquid scintillation analyzer, Model 1500, using the ^14 C quench standards and SIS numbers.
(§2) The removal of radioactivity from the media was determined by measuring the amount of ^14 C label in 0.1 ml of the medium at time 0 and 21 days for each culture. Uninoculated cultures were used as evaporation controls. […] At the end of each mineralization experiment, culture broths were acidified with 5 ml of 1M H3 PO4, fresh 1N NaOH was added to the trap, and the cultures were shaken overnight. No additional releases of ^14 CO2 were observed. The radioactivity assimilated by the cells was measured by solubilizing biomass harvested from each 21-day-old culture in an equal volume of hyamine hydroxide solution. Before solubilization, cells were washed three times with 50 ml of distilled water to remove adsorbed dyes. Ecolite 10 ml was added to the mixture, which was vortexed vigorously. To increase counting efficiency, the solution of biomass-hyamine-scintillation cocktail was further diluted 10 to 20 times with fresh Ecolite before counting.

P. chrysosporium = assay: as above; type: cell-based, Phanerochaete chrysosporium; details: for Percentage of radioactivity recovered in CO2, P. chrysosporium / Percentage of radioactivity recovered in biomass (cells), P. chrysosporium / Percentage of radioactivity removed from the medium, P. chrysosporium: 21 days' growth, 200 mg/liter
Protocol: as §1
Either a charcoal-containing polyurethane sponge (Bio-Rad Laboratories, Richmond, Calif.) or 2-methoxyethanol was used to trap volatile organic compounds released during mineralization experiments. The sponge (1 cm^3) replaced the 1N NaOH solution in the small glass cap attached to the rubber stopper; other conditions were as before for the ^14 CO2 experiments. For scintillation counting, the charcoal sponges were dissolved in 1 ml of hyamine hydroxide contained in scintillation vials (1M solution in methanol; NEN Research Products, Boston, Mass.) held at 55° C. for 2 h. Ten ml of Ecolite scintillation cocktail were then added and the cpm was measured.
In the second procedure, cultures with CO2 traps were flushed with oxygen for 10 min, and the organic volatiles present were trapped in 10 ml of 2-methoxyethanol mixed with 10 ml Ecolite.
as §2

[4] = test system: lignin peroxidase (ligninase, LiP); assay: Oxidation of azo dyes and veratryl alcohol by pure lignin peroxidase; type: biochemical, Phanerochaete chrysosporium; details: for Oxidation by ligninase after VA was added: with veratryl alcohol; for Oxidation by ligninase without VA: without veratryl alcohol
Protocol: Lignin peroxidase activity was determined spectrophotometrically at room temperature with VA as substrate. One unit (U) of enzyme activity was defined as 1 μmole of veratryl aldehyde formed-per-min at pH 3. Simultaneous oxidations of azo dyes and veratryl alcohol were measured using a Hewlett-Packard 8452 diode array spectrophotometer operated in the kinetic mode by a Vectra PC equipped with MS™-DO/UV-VIS software. Azo dye concentrations were determined by measuring absorbances at appropriate maxima.
After six days of growth, when the specific activity of ligninase reached about 250 U-per-liter, culture filtrates were separated from mycelial debris by filtration. One liter of culture filtrate was concentrated to about 10 ml using an Amicon PM-10 membrane and desalted in 10 mM sodium acetate buffer (pH 6) using a Sephadex G25 NAP10 column. Ligninase isoenzyme was separated from Mn-dependent peroxidases using a Pharmacia fast protein liquid chromatography system equipped with a Mono Q HR 5/5 column. In this study isoforms H2 and H8 were used.
In vitro studies were limited to dyes 24 and 28. […] FIGS. 6A and 7A show the simultaneous oxidation of azo dyes 24 and 28, respectively, and VA by ligninase. Without VA, azo dye oxidation was limited and terminated more rapidly than in the presence of VA (FIGS. 6B and 7B). When a dye was present in a reaction mixture, the rate of VA oxidation decreased due to an apparent competition for LiPI between these two compounds. The oxidation rate of VA recovered when the azo dye oxidation was completed (FIG. 8). The maximal rate of VA oxidation was about 159 AU (absorption change per-min-per-ml of ligninase solution). Wavelengths of 310 nm for VA, 506 nm for dye 24, and 430 nm for dye 28 oxidations were used in monitoring substrate removal. The oxidation of azo dyes is stimulated by VA in high (200 μM) and low (20 μM) H2 O2 concentrations.

[5] = test system: P. chrysosporium ligninolytic culture; type: cell-based, Phanerochaete chrysosporium; details: ten days of growth; for Dye remaining in the cultures, HPLC / Dye remaining in the cultures, Spectrophotometry: initial 200 mg-per-liter; for Bleaching of cultures: 200 mg-per-liter
Protocol: Decolorization of dyes in cultures were monitored at their absorption maxima at pH 4.5, or using HPLC. A Spherisorb ODS2 C18 column was used for HPLC analysis with a sequence of DMS buffer at pH 4.5 and acetonitrile as solvents (5 min 100% DMS, 15 min 100% acetonitrile, 18 min 100% acetonitrile, 19 min 100% DMS, 20 min 100% DMS, 5 min postran 100% DMS). Peaks were monitored at 260 and 450 nm. Results from spectrophotometric and HPLC methods were compared.
The initial concentration of dye was 200 mg-per-liter. Numbers represent mg-per-liter of dye remaining in the cultures.

soil microflora = assay: Degradation of azo dyes by soil microflora; type: cell-based; details: water from a soil sample; for Dye mineralized by soil microflora: 14CO2 trapped; for Dye transformed by soil microflora: carbon source, air flow
Protocol: The degradation of azo dyes by soil microflora in general was evaluated by forming a mixture of azo dyes 33 and 34 with water from a soil sample. The soil sample contained soil microflora that had not adapted to using azo dyes as substrates. A carbon source was added to the mixture and a continuous air flow through the mixture was maintained. The ^14 CO2 released by the mixture was trapped using a 1N NaOH.

Mn(II)-peroxidase [6] = assay: Oxidation of dyes by P. chrysosporium Mn(II)-peroxidase; type: biochemical, Phanerochaete chrysosporium; details: crude enzyme, conditions specific for Mn(II)-peroxidase
[7] = test system: S. chromofuscus A11 extracellular peroxidase; assay: Oxidation of azo dyes by S. chromofuscus A11 crude enzyme preparation; type: biochemical, Streptomyces chromofuscus A11; details: pH 8, 37° C., H2O2
How it was run: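 Enzyme from 48 h S. chromofuscus A11 culture supernatant, concentrated, ammonium sulfate-precipitated, dialyzed in 20 mM HEPES pH 8; yellow Sephadex G-25 fraction used. Reaction started with 100 μl 50 mM H2O2, followed 1 min at 37° C; controls without H2O2 or with 25 μM KCN.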

[8] = target: T1, horseradish peroxidase type II (Armoracia rusticana, UniProt P00433); assay: Oxidation of azo dyes by horseradish peroxidase preparation; type: biochemical; details: pH 8, 37° C., H2O2
T1 sequence (P00433 31-338): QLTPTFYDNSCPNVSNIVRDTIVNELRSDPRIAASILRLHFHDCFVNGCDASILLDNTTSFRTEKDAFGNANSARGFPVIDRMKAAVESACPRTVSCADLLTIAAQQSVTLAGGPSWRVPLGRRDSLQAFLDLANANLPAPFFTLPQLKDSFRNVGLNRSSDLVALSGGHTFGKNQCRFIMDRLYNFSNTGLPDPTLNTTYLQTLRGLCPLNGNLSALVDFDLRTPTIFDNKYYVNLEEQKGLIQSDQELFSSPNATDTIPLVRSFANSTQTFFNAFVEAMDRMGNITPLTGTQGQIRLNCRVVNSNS
Protocol: The reaction was started with the addition of 100 μl of 50 mM H2 O2 and was followed for 1 min at 37° C. Controls were run with no addition of H2 O2 or with the addition of the hemeperoxidase inhibitor KCN (final concentration 25 μM).

Compound: Nc1ccc(S(=O)(=O)O)cc1 [Sulfanilic acid, 4-Amino-[U-^14 C]benzenesulfonic acid]
Percent substrate removed, P. chrysosporium [1]: 68%
Oxidation / decolorization by ligninase (ligninase): transformed slowly
Oxidation by manganese peroxidase (Mn(II)-peroxidase [2]): not detected
Percentage of radioactivity recovered in CO2, Streptomyces chromofuscus [3]: 0.0%
Percentage of radioactivity recovered in biomass (cells), Streptomyces chromofuscus [3]: 0.0%
Percentage of radioactivity removed from the medium, Streptomyces chromofuscus [3]: 0.0%
Percentage of radioactivity recovered in biomass (cells), P. chrysosporium (P. chrysosporium): 1.3%
Percentage of radioactivity removed from the medium, P. chrysosporium (P. chrysosporium): 25.0%
Percentage of radioactivity recovered in CO2, P. chrysosporium (P. chrysosporium; listed as Sulfanilic Acid): 17.2%
Percentage of radioactivity recovered in CO2, P. chrysosporium (P. chrysosporium; listed as sulfanilic acid): 17%
Start of mineralization in the fungal culture (P. chrysosporium; P. chrysosporium): tenth day

Compound: COc1cc(N=N[14c]2[14cH][14cH][14c](S(=O)(=O)O)[14cH][14cH]2)ccc1O [compound 34]
Dye mineralized by soil microflora (soil microflora): 14%
Dye transformed by soil microflora (soil microflora): 46%
Mineralization by the streptomycetes ([3]; 21-day incubation): mineralized
Radioactivity accounted for by dye absorbed by the cells ([3]; 21 days growth of S. chromofuscus): 9%
Percentage of radioactivity recovered in CO2, Streptomyces chromofuscus [3]: ~4%
Percentage of radioactivity recovered in biomass (cells), Streptomyces chromofuscus [3]: 4.6%
Percentage of radioactivity recovered in CO2, P. chrysosporium (P. chrysosporium): 25.7%
Percentage of radioactivity recovered in biomass (cells), P. chrysosporium (P. chrysosporium): 5.2%
Percentage of radioactivity removed from the medium, P. chrysosporium (P. chrysosporium): 31.7%
Mineralization rate relative to dyes 33 and 35 (P. chrysosporium; first 10 days of incubation): twice as fast

Compound: Nc1ccc(N=N[14c]2[14cH][14cH][14c](S(=O)(=O)O)[14cH][14cH]2)cc1S(=O)(=O)O [compound 33]
Dye mineralized by soil microflora (soil microflora): 1.1%
Dye transformed by soil microflora (soil microflora): 3.4%

More lines, main results first:

Percent substrate removed, P. chrysosporium [1]: 79%
Amount of dye decolorized by ligninase (ligninase; out of 10 micrograms, 15 minutes, pH3, 0.6 units of enzyme): about 3 micrograms
Oxidation by manganese peroxidase (Mn(II)-peroxidase [2]): not detected
Compound: Nc1ccc(N=Nc2ccc(S(=O)(=O)O)cc2)cc1S(=O)(=O)O [Azo dye 18, 4-amino-1,1'-azobenzene-3,4'-disulfonic acid]
Percentage of radioactivity recovered in CO2, Streptomyces chromofuscus [3]: 0.0%
Percentage of radioactivity recovered in biomass (cells), Streptomyces chromofuscus [3]: 0.0%
Percentage of radioactivity removed from the medium, Streptomyces chromofuscus [3]: 0.0%
Percentage of radioactivity recovered in CO2, P. chrysosporium (P. chrysosporium): 26.9%
Percentage of radioactivity recovered in biomass (cells), P. chrysosporium (P. chrysosporium): 2.3%
Percentage of radioactivity removed from the medium, P. chrysosporium (P. chrysosporium): 33.0%

Oxidation by ligninase after VA was added [4]: total decolorization
Oxidation by ligninase without VA [4]: limited extent
Compound: O=S(=O)(O)c1ccc(N=Nc2ccc(N=Nc3c(O)ccc4ccccc34)c(S(=O)(=O)O)c2)cc1 [compound 24]
Dye remaining in the cultures, HPLC [5]: 4.43 mg-per-liter
Dye remaining in the cultures, Spectrophotometry [5]: 1.11 mg-per-liter
Bleaching of cultures [5]: completely bleached

Degradation by Phanerochaete fungus ([1]; growth period of seven days, starting dye 150-200 ppm (FIG. 3), 10080 min): 90%
% Decolorization, P. chrysosporium ([1]; initial concn 150 ppm): 99%
% Decolorization, P. chrysosporium ([1]; initial concn 300 ppm): 62%
Oxidation rate of azo dyes, P. chrysosporium Ligninase (ligninase; crude enzyme, conditions specific for ligninase): 0.44 μmoles per minute per ml
Oxidation / decolorization by ligninase (ligninase): not detected
Degradation by manganese peroxidase (HPLC, words) (Mn(II)-peroxidase [2]; one hour incubation): almost completely degraded
Oxidation rate of azo dyes, P. chrysosporium Mn-peroxidase (Mn(II)-peroxidase [6]): 3.06 μmoles per minute per ml
Oxidation rate of azo dyes, S. chromofuscus peroxidase [7]: 1.78 μmoles per minute per ml
Oxidation rate of azo dyes, Horseradish peroxidase [8]: 8.24 μmoles per minute per ml
Compound: COc1cc(N=Nc2ccc(N=Nc3ccc(S(=O)(=O)O)cc3)cc2S(=O)(=O)O)ccc1O [compound 1]

Oxidation by ligninase after VA was added [4]: total decolorization
Oxidation by ligninase without VA [4]: limited extent
Compound: O=C(O)c1nn(-c2ccc(S(=O)(=O)O)cc2)c(O)c1N=Nc1ccc(S(=O)(=O)O)cc1 [compound 28]
Dye remaining in the cultures, HPLC [5]: 3.00 mg-per-liter
Dye remaining in the cultures, Spectrophotometry [5]: 2.42 mg-per-liter
Bleaching of cultures [5]: completely bleached
